Laboratory results taken from article PMC10937556, “Phenolic phytochemistry, in vitro, in silico, in vivo, and mechanistic anti-inflammatory and antioxidant evaluations of Habenaria digitata” (Frontiers in Pharmacology, 2024).
Read-outs that look alike come from different tables or passages of the source.

Columns and labels:
[1] = H2O2 free radical scavenging activity
Procedure: The antioxidant potential of isolated compounds was determined using this approach. In a phosphate buffer solution (50 mM, pH 7.40), a solution of H2O2 (2 mM) was produced. The crude extract (0.10 mL) was measured in a test tube and diluted to 0.40 mL using phosphate buffer. Thereafter, H2O2 (0.60 mL) was added and thoroughly mixed. […] 230 nm was used to measure the absorbance of the sample and the standard ([Sadiq et al., 2018]). For all the crude samples, the exact process was followed. According to the procedure, the inhibition percentage and IC50 values were computed.

5-LOX = target: T1, 5-LOX (Homo sapiens, UniProt P09917); assay: 5-Lipoxygenase (5-LOX) inhibition assay; assay type: biochemical; settings: for inhibition at 62.5 µg/mL: 62.50 μg/mL; for inhibition at 62.5 µg/mL / inhibition at 125 µg/mL / inhibition at 250 µg/mL / inhibition at 500 µg/mL / inhibition at 1000 µg/mL: read-out: % 5-LOX inhibitions; for inhibition at 1000 µg/mL: 1,000 µg/mL; for % 5-LOX inhibitions: 1,000 μg/mL
T1 construct: purchased Sigma-Aldrich (local distributor) 437996
T1 sequence (P09917 1-674): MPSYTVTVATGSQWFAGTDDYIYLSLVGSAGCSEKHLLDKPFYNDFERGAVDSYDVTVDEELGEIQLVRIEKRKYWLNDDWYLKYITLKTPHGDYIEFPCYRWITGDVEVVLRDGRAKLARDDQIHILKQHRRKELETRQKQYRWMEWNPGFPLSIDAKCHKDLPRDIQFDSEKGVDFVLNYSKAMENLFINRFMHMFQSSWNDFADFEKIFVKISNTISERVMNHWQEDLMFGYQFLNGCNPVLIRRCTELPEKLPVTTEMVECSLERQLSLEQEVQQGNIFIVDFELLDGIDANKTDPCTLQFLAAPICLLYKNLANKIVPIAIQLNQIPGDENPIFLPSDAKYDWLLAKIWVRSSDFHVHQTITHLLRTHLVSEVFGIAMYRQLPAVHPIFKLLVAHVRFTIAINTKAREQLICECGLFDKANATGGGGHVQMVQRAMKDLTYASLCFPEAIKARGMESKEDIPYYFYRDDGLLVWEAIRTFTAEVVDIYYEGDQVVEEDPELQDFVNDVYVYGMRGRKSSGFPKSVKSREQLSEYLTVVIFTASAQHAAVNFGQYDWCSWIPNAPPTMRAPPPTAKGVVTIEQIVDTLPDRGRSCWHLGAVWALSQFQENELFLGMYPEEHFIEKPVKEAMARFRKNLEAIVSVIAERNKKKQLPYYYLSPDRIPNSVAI
Procedure: The 5-LOX inhibitory experiments on H. digitata samples were carried out as per published protocol ([Pervaiz et al., 2022]). Several concentrations of plant samples were made, with concentrations ranging from 31.25 to 1,000 μg/mL. Thereafter, 5-LOX was primed with 10,000 U/mL solutions. Linoleic acid (80 mM) was used as the substrate. Likewise, 50 mM phosphate buffer with a pH of 6.3 was primed. Plant samples of varied quantities were dissolved in 250 µL of phosphate buffer, and then, 250 µL of the lipoxygenase enzyme solution was added and incubated for 5 min at room temperature. A volume of 1,000 µL of the substrate solution with a concentration of 0.6 mM was added to the enzyme solution and shaken. The absorbance at 234 nm was observed. All of the tests were conducted three times. In this test, zileuton served as a positive control. The percentage inhibition was determined using the following equation: Percentage Inhibition=Control Abs. −Sample Abs. /Control Abs. ×100.
The IC50 values were derived by plotting the inhibitions against the concentrations of the tested sample solution.

COX-1 = COX-1 (Ovis aries, UniProt P05979); assay: Cyclooxygenase COX-1 inhibition assay; assay type: biochemical; settings: for inhibition at 62.5 µg/mL / inhibition at 125 µg/mL / inhibition at 500 µg/mL: read-out: % COX-1 inhibition; for inhibition at 1000 µg/mL: 1,000 µg/mL
Sequence of COX-1 (P05979 25-600): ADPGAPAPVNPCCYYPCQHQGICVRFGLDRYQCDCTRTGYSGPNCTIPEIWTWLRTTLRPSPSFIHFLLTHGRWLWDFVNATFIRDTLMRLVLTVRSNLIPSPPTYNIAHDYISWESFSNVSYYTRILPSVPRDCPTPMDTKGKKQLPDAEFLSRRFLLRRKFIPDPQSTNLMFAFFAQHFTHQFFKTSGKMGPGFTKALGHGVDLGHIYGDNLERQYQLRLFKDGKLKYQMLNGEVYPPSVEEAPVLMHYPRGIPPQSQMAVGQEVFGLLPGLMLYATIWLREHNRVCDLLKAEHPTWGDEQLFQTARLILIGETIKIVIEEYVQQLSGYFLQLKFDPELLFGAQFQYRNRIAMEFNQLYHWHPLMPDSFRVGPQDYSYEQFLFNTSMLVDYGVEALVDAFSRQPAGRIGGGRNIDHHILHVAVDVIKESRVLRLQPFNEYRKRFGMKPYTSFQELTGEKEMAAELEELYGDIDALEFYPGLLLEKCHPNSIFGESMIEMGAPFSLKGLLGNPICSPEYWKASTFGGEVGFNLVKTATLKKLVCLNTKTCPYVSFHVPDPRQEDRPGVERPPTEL

[2] = DPPH free radical scavenging assay
Procedure: The DPPH (anti-radicals) investigation was carried out according to our earlier reported protocols. Initially, a methanolic DPPH solution was prepared with a concentration of 0.1%. Subsequently, 100 µL of this solution was mixed with an equal volume of the test samples (100 µL) in 96-well plates, following a 30-min incubation period at 25°C ± 3 °C in the dark. Solutions with concentrations ranging from […] were prepared. Five concentrations of 1,000, 500, 250, 125, and 62.5 µM of the Trolox methanolic solution ([…]) were formed. A color reduction in DPPH was observed after incubation; a microplate reader was used, and absorbance was measured at 540 nm ([Mahnashi et al., 2022a]; [Huneif et al., 2022]). The percentage of scavenging was determined by the formula: Scavenging effect %=control absorbance−sample absorbance/control absorbance×100.

H2O2 IC50 [1]	IC50 (5-LOX)	inhibition at 62.5 µg/mL (5-LOX)	inhibition at 125 µg/mL (5-LOX)	inhibition at 250 µg/mL (5-LOX)	inhibition at 500 µg/mL (5-LOX)	inhibition at 1000 µg/mL (5-LOX)	inhibition at 62.5 µg/mL (COX-1; 62.50 μg/mL)	inhibition at 125 µg/mL (COX-1; 125 µg/mL)	DPPH IC50 [2]	SMILES	H2O2 % inhibition ([1]; 62.5 µg/mL)	H2O2 % inhibition ([1]; 125 µg/mL)	H2O2 % inhibition ([1]; 250 µg/mL)	H2O2 % inhibition ([1]; 500 µg/mL)	H2O2 % inhibition ([1]; 1,000 µg/mL)	DPPH % inhibition ([2]; 62.5 µg/mL)	DPPH % inhibition ([2]; 125 µg/mL)	DPPH % inhibition ([2]; 250 µg/mL)	DPPH % inhibition ([2]; 500 µg/mL)	DPPH % inhibition ([2]; 1,000 µg/mL)	also measured
06 µg/mL	73.9 µM	61.35 ± 0.18%	66.2 ± 0.15%	73.42 ± 0.11%	78.62 ± 0.17%	83.53 ± 0.2%	40.8 ± 1.06%	46.4 ± 0.62%	04 µg/mL	CC1=C(O)C(=O)C(O)CO1 (stereo not shown) [Compound 2, 3,5-dihydroxy-6-methyl-2,3-dihydro-4H-pyran-4-one]	67.90 ± 1.16 ^ns %	71.34 ± 0.55 ^ns %	75.36 ± 0.49 ^ns %	80.39 ± 0.49 ^ns %	86.39 ± 0.60 ^ns %	72.74 ± 0.61 %	76.54 ± 0.50 %	81.48 ± 0.64 %	86.86 ± 0.60 %	91.62 ± 0.74 %	inhibition at 250 µg/mL (COX-1): 54.6 ± 0.58%; inhibition at 500 µg/mL (COX-1; 500 µg/mL): 65.29 ± 0.41%; inhibition at 1000 µg/mL (COX-1): 71.37 ± 0.56%
65 µg/mL	182 µM	59.8 ± 0.65%	66.7 ± 0.78%	75.7 ± 0.62%	80.76 ± 0.63%	76.7 ± 0.66%	33 ± 1.15%	42.7 ± 0.89%	40 µg/mL	C=Cc1ccc(O)cc1OC [Compound 4, 3-methoxy-4-vinylphenol]	53.90 ± 0.48 %	57.03 ± 0.48 %	62.90 ± 0.96 %	65.65 ± 1.34 %	69.58 ± 1.12 %	58.15 ± 0.22 %	63.36 ± 0.71 %	68.39 ± 0.35 %	73.42 ± 0.12 %	77.73 ± 0.03 %	% 5-LOX inhibitions (5-LOX; listed as Comp 4): 84.83 ± 0.62 %; inhibition at 250 µg/mL (COX-1): 49 ± 0.58%; inhibition at 500 µg/mL (COX-1; 500 µg/mL): 63.03 ± 0.23%; inhibition at 1000 µg/mL (COX-1): 71.33 ± 0.49%
35 µg/mL	171 µM	49.9 ± 0.65%	57.2 ± 0.57%	65.5 ± 1.04%	71.3 ± 1.11%	84.83 ± 0.62%	29.15 ± 0.22%	41.4 ± 0.71%	16 µg/mL	C=Cc1cc(OC)c(O)c(OC)c1 [Compound 5, 2,6-dimethoxy-4-vinylphenol]	57.51 ± 0.62 %	62.46 ± 0.47 %	66.68 ± 0.64 %	70.53 ± 0.41 %	76.42 ± 0.46 %	60.48 ± 0.23 %	63.99 ± 0.19 %	67.05 ± 0.13 %	71.75 ± 0.21 %	75.28 ± 0.42 %	% 5-LOX inhibitions (5-LOX; listed as Comp 5): 76.7 ± 0.66 %; inhibition at 250 µg/mL (COX-1): 47.39 ± 0.35%; inhibition at 500 µg/mL (COX-1; 500 µg/mL): 57.42 ± 0.12%; inhibition at 1000 µg/mL (COX-1): 67.73 ± 0.03%

SMILES	H2O2 IC50 [1]	IC50 (5-LOX)	inhibition at 62.5 µg/mL (5-LOX)	inhibition at 125 µg/mL (5-LOX)	inhibition at 250 µg/mL (5-LOX)	inhibition at 500 µg/mL (5-LOX)	inhibition at 1000 µg/mL (5-LOX)	inhibition at 62.5 µg/mL (COX-1; 62.50 μg/mL)	inhibition at 125 µg/mL (COX-1; 125 µg/mL)	DPPH IC50 [2]	H2O2 % inhibition ([1]; 62.5 µg/mL)	H2O2 % inhibition ([1]; 125 µg/mL)	H2O2 % inhibition ([1]; 250 µg/mL)	H2O2 % inhibition ([1]; 500 µg/mL)	H2O2 % inhibition ([1]; 1,000 µg/mL)	DPPH % inhibition ([2]; 62.5 µg/mL)	DPPH % inhibition ([2]; 125 µg/mL)	DPPH % inhibition ([2]; 250 µg/mL)	DPPH % inhibition ([2]; 500 µg/mL)	DPPH % inhibition ([2]; 1,000 µg/mL)	also measured
Cc1cnc(O)nc1O [Compound 1, 5-methylpyrimidine-24,4-diol]	05 µg/mL	58.7 µM	65.68 ± 0.64%	71.42 ± 0.46%	76.53 ± 0.41%	82.45 ± 0.55%	87.63 ± 0.64%	45.8 ± 0.9%	55.4 ± 0.2%	0.90 µg/mL	69.91 ± 1.30 ^ns %	71.76 ± 0.61 ^ns %	76.87 ± 1.27 ^ns %	81.13 ± 0.20^ns %	85.20 ± 0.23^ns %	75.00 ± 1.15 %	78.67 ± 0.89 %	83.00 ± 0.58 %	87.03 ± 0.23 %	93.33 ± 0.49 %	inhibition at 250 µg/mL (COX-1): 60.6 ± 0.63%; inhibition at 500 µg/mL (COX-1; 500 µg/mL): 66.5 ± 0.9%; inhibition at 1000 µg/mL (COX-1): 73.1 ± 1.04%
Cc1ccc(C(C)C)c(O)c1 [Compound 3, 2-isopropyl-5-methylphenol]	33 µg/mL	174 µM	51.9 ± 1.16%	57.34 ± 0.55%	61.36 ± 0.49%	67.39 ± 0.49%	73.39 ± 0.6%	–	–	17 µg/mL	58.74 ± 0.68 %	62.70 ± 1.25 %	67.05 ± 0.75 %	72.32 ± 1.06 %	77.34 ± 0.98 %	62.98 ± 0.72 %	67.90 ± 0.96 %	72.91 ± 0.88 %	77.08 ± 0.47 %	81.03 ± 0.35 %	inhibition at 62.5 µg/mL (COX-1): 41.3 ± 1.01%; inhibition at 125 µg/mL (COX-1): 46.7 ± 0.78%; inhibition at 500 µg/mL (COX-1): 57.9 ± 0.97%
